Species: Rattus norvegicus
Assay: Open TG-GATES - Regimen: Daily Repeat
Type: toxicity, organism-based, Sprague-Dawley
Parameters: regimen Daily Repeat, gender Male, age 6 weeks
Settings: in vivo, po, 600 mg/kg, route gavage, dose level High; for APTT / Bas / Eos / Fbg / Hb / Ht / Lym / MCH / MCHC / MCV / Mono / Neu / PT / Plat / RBC / Ret / WBC: tissue Blood; for KIDNEY_L / KIDNEY_R / KIDNEY_TOTAL: tissue Kidney; for LIVER: tissue Liver; for A/G / ALP / ALT / AST / BUN / CRE / Ca / Cl / DBIL / GLC / IP / K / LDH / Na / PL / RALB / TBIL / TC / TG / TP / gamma-GTP: tissue Plasma

`C[C@](N)(Cc1ccc(O)c(O)c1)C(=O)O` [METHYLDOPA] gave a TERMINAL_BW (72 h, time 3 day) of 188.1 g, an APTT (72 h, time 3 day) of 17.3 s and a Bas (72 h, time 3 day) of 0%. The Eos (72 h, time 3 day) was 1.2%, the Fbg (72 h, time 3 day) was 240 mg/dL and the Hb (72 h, time 3 day) was 14.2 g/dL. For the same compound, the Ht (72 h, time 3 day) was 41.8%, the Lym (72 h, time 3 day) was 83.2% and the MCH (72 h, time 3 day) was 21.4 pg. It also gave an MCHC (72 h, time 3 day) of 34%, an MCV (72 h, time 3 day) of 62.9 fL and a Mono (72 h, time 3 day) of 2.4%. It also gave a Neu (72 h, time 3 day) of 12.6%, a PT (72 h, time 3 day) of 12.8 s and a Plat (72 h, time 3 day) of 108 x10_4/uL. The RBC (72 h, time 3 day) was 665.2 x10_4/ul, the Ret (72 h, time 3 day) was 4.2% and the WBC (72 h, time 3 day) was 54.3 x10_2/uL. The KIDNEY_L (72 h, time 3 day) was 0.9 g, the KIDNEY_R (72 h, time 3 day) was 0.9 g and the KIDNEY_TOTAL (72 h, time 3 day) was 1.7 g. For the same compound, the LIVER (72 h, time 3 day) was 8.1 g, the A/G (72 h, time 3 day) was 0.8 and the ALP (72 h, time 3 day) was 1746 IU/L. For the same compound, the ALT (72 h, time 3 day) was 54.4 IU/L, the AST (72 h, time 3 day) was 74 IU/L and the BUN (72 h, time 3 day) was 18.2 mg/dL. The CRE (72 h, time 3 day) was 0.2 mg/dL, the Ca (72 h, time 3 day) was 10.9 mg/dL and the Cl (72 h, time 3 day) was 106.6 meq/L. It also gave a DBIL (72 h, time 3 day) of 0.01 mg/dL, a GLC (72 h, time 3 day) of 167.2 mg/dL and an IP (72 h, time 3 day) of 7.8 mg/dL. The K (72 h, time 3 day) was 4.1 meq/L, the LDH (72 h, time 3 day) was 72.2 IU/L and the Na (72 h, time 3 day) was 146.2 meq/L. It also gave a PL (72 h, time 3 day) of 153 mg/dL, an RALB (72 h, time 3 day) of 2.6 g/dL and a TBIL (72 h, time 3 day) of 0.054 mg/dL. It also gave a TC (72 h, time 3 day) of 95.6 mg/dL, a TG (72 h, time 3 day) of 37.2 mg/dL and a TP (72 h, time 3 day) of 5.5 g/dL. It also gave a gamma-GTP (72 h, time 3 day) of 1 IU/L, a TERMINAL_BW ([…], time 7 day) of 207.4 g and a TERMINAL_BW ([…], time 14 day) of 241.7 g. It also gave a TERMINAL_BW ([…], time 28 day) of 321.4 g, an APTT ([…], time 7 day) of 16.1 s and a Bas ([…], time 7 day) of 0%. It also gave an Eos ([…], time 7 day) of 1.2%, a Fbg ([…], time 7 day) of 259 mg/dL and a Hb ([…], time 7 day) of 14.4 g/dL. It also gave a Ht ([…], time 7 day) of 42.1%, a Lym ([…], time 7 day) of 81.6% and an MCH ([…], time 7 day) of 20.5 pg. For the same compound, the MCHC ([…], time 7 day) was 34.2%, the MCV ([…], time 7 day) was 60 fL and the Mono ([…], time 7 day) was 2.8%. It also gave a Neu ([…], time 7 day) of 14.4%, a PT ([…], time 7 day) of 12.2 s and a Plat ([…], time 7 day) of 106.1 x10_4/uL. It also gave an RBC ([…], time 7 day) of 702 x10_4/ul, a Ret ([…], time 7 day) of 3.6% and a WBC ([…], time 7 day) of 67.6 x10_2/uL. It also gave an APTT ([…], time 14 day) of 16.5 s, a Bas ([…], time 14 day) of 0% and an Eos ([…], time 14 day) of 0.8%. For the same compound, the Fbg ([…], time 14 day) was 277 mg/dL, the Hb ([…], time 14 day) was 14.2 g/dL and the Ht ([…], time 14 day) was 40.9%. It also gave a Lym ([…], time 14 day) of 83.8%, an MCH ([…], time 14 day) of 21.1 pg and an MCHC ([…], time 14 day) of 34.7%. For the same compound, the MCV ([…], time 14 day) was 60.8 fL, the Mono ([…], time 14 day) was 1.8% and the Neu ([…], time 14 day) was 13%. For the same compound, the PT ([…], time 14 day) was 14.2 s, the Plat ([…], time 14 day) was 111.5 x10_4/uL and the RBC ([…], time 14 day) was 673.2 x10_4/ul. It also gave a Ret ([…], time 14 day) of 4.6%, a WBC ([…], time 14 day) of 86.9 x10_2/uL and an APTT ([…], time 28 day) of 16.8 s. For the same compound, the Bas ([…], time 28 day) was 0%, the Eos ([…], time 28 day) was 1.2% and the Fbg ([…], time 28 day) was 300.8 mg/dL. For the same compound, the Hb ([…], time 28 day) was 14.9 g/dL, the Ht ([…], time 28 day) was 43.2% and the Lym ([…], time 28 day) was 75.4%. It also gave an MCH ([…], time 28 day) of 19.7 pg, an MCHC ([…], time 28 day) of 34.5% and an MCV ([…], time 28 day) of 57.2 fL. It also gave a Mono ([…], time 28 day) of 2%, a Neu ([…], time 28 day) of 21.2% and a PT ([…], time 28 day) of 14.1 s. It also gave a Plat ([…], time 28 day) of 101.5 x10_4/uL, an RBC ([…], time 28 day) of 756.4 x10_4/ul and a Ret ([…], time 28 day) of 2.4%. It also gave a WBC ([…], time 28 day) of 68.4 x10_2/uL, a KIDNEY_L ([…], time 7 day) of 0.9 g and a KIDNEY_R ([…], time 7 day) of 0.9 g. For the same compound, the KIDNEY_TOTAL ([…], time 7 day) was 1.8 g, the KIDNEY_L ([…], time 14 day) was 1 g and the KIDNEY_R ([…], time 14 day) was 1 g. For the same compound, the KIDNEY_TOTAL ([…], time 14 day) was 2 g, the KIDNEY_L ([…], time 28 day) was 1.2 g and the KIDNEY_R ([…], time 28 day) was 1.2 g. It also gave a KIDNEY_TOTAL ([…], time 28 day) of 2.5 g, an LIVER ([…], time 7 day) of 8.1 g and an LIVER ([…], time 14 day) of 9.1 g. It also gave an LIVER ([…], time 28 day) of 11.7 g, an A/G ([…], time 7 day) of 0.9 and an ALP ([…], time 7 day) of 1646.8 IU/L. For the same compound, the ALT ([…], time 7 day) was 51 IU/L, the AST ([…], time 7 day) was 88.4 IU/L and the BUN ([…], time 7 day) was 14.6 mg/dL. The CRE ([…], time 7 day) was 0.2 mg/dL, the Ca ([…], time 7 day) was 10.9 mg/dL and the Cl ([…], time 7 day) was 107.6 meq/L. For the same compound, the DBIL ([…], time 7 day) was 0.008 mg/dL, the GLC ([…], time 7 day) was 179.2 mg/dL and the IP ([…], time 7 day) was 7.8 mg/dL. It also gave a K ([…], time 7 day) of 4.4 meq/L, an LDH ([…], time 7 day) of 66.4 IU/L and a Na ([…], time 7 day) of 146 meq/L. For the same compound, the PL ([…], time 7 day) was 133.2 mg/dL, the RALB ([…], time 7 day) was 2.7 g/dL and the TBIL ([…], time 7 day) was 0.064 mg/dL. It also gave a TC ([…], time 7 day) of 87.4 mg/dL, a TG ([…], time 7 day) of 26 mg/dL and a TP ([…], time 7 day) of 5.7 g/dL. It also gave a gamma-GTP ([…], time 7 day) of 1.2 IU/L, an A/G ([…], time 14 day) of 0.8 and an ALP ([…], time 14 day) of 1330.4 IU/L. For the same compound, the ALT ([…], time 14 day) was 43.8 IU/L, the AST ([…], time 14 day) was 65 IU/L and the BUN ([…], time 14 day) was 12.2 mg/dL. For the same compound, the CRE ([…], time 14 day) was 0.2 mg/dL, the Ca ([…], time 14 day) was 11.2 mg/dL and the Cl ([…], time 14 day) was 105.4 meq/L. It also gave a DBIL ([…], time 14 day) of 0.002 mg/dL, a GLC ([…], time 14 day) of 179.6 mg/dL and an IP ([…], time 14 day) of 7.9 mg/dL. The K ([…], time 14 day) was 4.7 meq/L, the LDH ([…], time 14 day) was 53.4 IU/L and the Na ([…], time 14 day) was 143 meq/L. For the same compound, the PL ([…], time 14 day) was 139.4 mg/dL, the RALB ([…], time 14 day) was 2.7 g/dL and the TBIL ([…], time 14 day) was 0.054 mg/dL. For the same compound, the TC ([…], time 14 day) was 91 mg/dL, the TG ([…], time 14 day) was 26.4 mg/dL and the TP ([…], time 14 day) was 5.8 g/dL. For the same compound, the gamma-GTP ([…], time 14 day) was 1 IU/L, the A/G ([…], time 28 day) was 0.8 and the ALP ([…], time 28 day) was 1178.8 IU/L. The ALT ([…], time 28 day) was 40 IU/L, the AST ([…], time 28 day) was 56.8 IU/L and the BUN ([…], time 28 day) was 13 mg/dL. It also gave a CRE ([…], time 28 day) of 0.2 mg/dL, a Ca ([…], time 28 day) of 11 mg/dL and a Cl ([…], time 28 day) of 104.4 meq/L. For the same compound, the DBIL ([…], time 28 day) was 0.016 mg/dL, the GLC ([…], time 28 day) was 177.2 mg/dL and the IP ([…], time 28 day) was 7.4 mg/dL. For the same compound, the K ([…], time 28 day) was 4.3 meq/L, the LDH ([…], time 28 day) was 39.2 IU/L and the Na ([…], time 28 day) was 144.8 meq/L. The PL ([…], time 28 day) was 140.6 mg/dL, the RALB ([…], time 28 day) was 2.7 g/dL and the TBIL ([…], time 28 day) was 0.062 mg/dL. For the same compound, the TC ([…], time 28 day) was 84.4 mg/dL, the TG ([…], time 28 day) was 37.6 mg/dL and the TP ([…], time 28 day) was 6 g/dL. For the same compound, the gamma-GTP ([…], time 28 day) was 1 IU/L.

— ChEMBL document CHEMBL3885861, “Open TG-GATES”
